Measured values reported in patent publication EP0404374A2, “Composition” (IMPERIAL CHEMICAL INDUSTRIES PLC, priority 1989, dated 1990).
Where a name gives a salt, the structure may show the parent alone.

What was measured:
[1] = system: cellulase from Aspergillus niger; assay: cellulase activity: viscosity (flow time) of carboxymethyl cellulose solution; type: biochemical; details: additive 10mM dm⁻³ pre-incubated with enzyme one hour at 25°C, about 24 minutes in the absence of cellulase; for Flow Rate (b) With additive 10: flow time after 10 minutes incubation; for Flow Rate (b) With additive 60: flow time after 60 minutes incubation
Experimental: To determine cellulase activity, 15cm³ of a 1% w/v solution of carboxymethyl cellulose in 50mM/dm³ of a tris (hydroxymethyl) aminomethane/hydrochloric acid buffer having a pH of 9, was incubated at 25°C with 0.01cm³ of a 10mg.cm⁻³ aqueous solution of cellulase from Aspergillus niger obtained from the Sigma Chemical Company.
The viscosity of the cellulose solution was determined after being incubated with the cellulase for either 10 or 60 minutes
To determine the effect of an additive on the spoilage activity of the enzyme, the compound was incubated with the enzyme at 25°C for a period of one hour, the concentration of the additive being 10mM dm⁻³ . The pre-incubated mixture was then added to a carboxymethyl cellulose solution of the type previously described. The resulting mixture was incubated and the viscosity was determined after 10 and 60 minutes incubation.

[2] = system: lipase from Pseudomonas species; assay: lipase activity, turbidimetric method with triolein; type: biochemical; details: enzyme PS; 9 millimoles; incubated 30 minutes at 25°C, pH 9.2; relative to control
Experimental: (§1) N,N¹-dichlorodimethyl hydantoin in an amount of 9 millimoles was dissolved in ethanol and added to a lipase in a tris (hydroxymethyl) aminomethane/hydrochloric acid buffer at a pH of 9.2. The mixture was incubated for 30 minutes at 25°C and neutralised by the addition of thiosulphate. The activity of the enzyme was determined as described hereafter.
(§2) Lipase activity was determined by the turbidimetric method described on pages 26 to 34 of "Methods of Enzymatic Analysis" Third Edition, edited by H V Bergmeyer and published by Verlag Chemie. The decrease in the light scattering of triolein (1,2,3-tris[cis-9-octadecenoyl]glycerol) by lipase was measured at 25°C and 350 nanometres on a Perkin-Elmer Lambda 15 spectrophotometer. Light scattering was measured on 2.8cm³ of an aqueous solution containing 24 micromoles of "Tris" buffer at pH 9.2, one micromole of calcium chloride, 35 micromoles of sodium chloride, 17.5 micromoles of sodium deoxycholate and 0.28 micromole of triolein. The activity was determined by the addition of 5mm³ of an aqueous solution containing 4.5mg cm⁻³ of lipase. Table Two

[3] = system: lipase from Candida cylindracea; assay: as above; type: biochemical; details: enzyme CC; 9 millimoles; incubated 30 minutes at 25°C, pH 9.2; relative to control
Experimental: as §1, §2

protease from S. griseus = assay: protease catalysed hydrolysis of chromogenic substrate; type: biochemical; details: substrate BTEE, one hour at 25°C, pH7
Experimental: N,N¹-dichlorodimethyl hydantoin was dissolved in ethanol in a known amount and was added to a protease in a 0.1M potassium phosphate buffer containing potassium dihydrogen phosphate and dipotassium hydrogen phosphate at pH7. The mixture was incubated for one hour at 25°C and the enzyme activity was then compared to that of a control by monitoring the protease catalysed hydrolysis of an appropriate chromogenic substrate.

[4] = target: chymotrypsin (EC 3.4.21.1) (Bos taurus, UniProt P00766); assay: as above; type: biochemical; details: pH 7, substrate BTEE, one hour at 25°C, pH7, read-out: % of activity retained (h)
Experimental: N,N¹-dichlorodimethyl hydantoin was dissolved in ethanol in a known amount and was added to a protease in a 0.1M potassium phosphate buffer containing potassium dihydrogen phosphate and dipotassium hydrogen phosphate at pH7.

[5] = system: amylase (1,4-α-D-glucan-glucanhydrolase; EC 3.2.1.1); assay: amylase activity in the breakdown of starch (3,5-dinitrosalicylate, absorbance at 540nm); type: biochemical, Bacillus species; details: amylase incubated for 90 minutes with 9 X 10⁻⁴M compound; absorption at 540nm
Experimental: A sample of amylase (1,4-α-D-glucan-glucanhydrolase; EC 3.2.1.1) from a Bacillus species (amylase sample obtained from the Sigma Chemical Company) was tested for activity in the breakdown of starch in the presence and absence of N,N¹-dichlorodimethyl hydantoin.
The activity of the amylase was estimated by a modification of the method described in Methods in Enzymology, published by the Academic Press, Volume 1, on page 149.
1g of potato amylopectin (a soluble starch) was dissolved in 200cm³ of a 20mM sodium phosphate aqueous buffer solution adjusted to pH7. 1cm³ of this solution was equilibrated in a water bath maintained at 25 °C. To the foregoing solution were added 2mm³ of an aqueous solution containing amylase in a concentration of 1mg of amylase/cm³ of solution. The mixture was incubated at 25 °C for five minutes. The reaction was then stopped by the addition of 1cm³ of a 0.4M aqueous sodium hydroxide solution containing 10mg/cm³ of 3,5-dinitrosalicylate and 0.3g/cm³ of sodium potassium tartrate. The resultant mixture was placed in a boiling water bath for five minutes, cooled rapidly and diluted with 10cm³ of water (deionised and subsequently doubly distilled in glass apparatus). The absorbance of the resulting mixture at 540nm was determined using a Perkin Elmer LAMBDA 15 spectrophoto meter.

[6] = system: purified components of the cellulase complex; details: Wood et al, Biochem.J. (1980), 189, 51 to 65; cited from earlier work

Compound | Flow Rate (b) With additive 10 [1] [min] | Flow Rate (b) With additive 60 [1] [min] | also measured
sodium tetrachloroaurate [STCA] | 23.80 | 23.70 | –
O=c1[nH]c(=O)n(Cl)c(=O)n1Cl [DCIS, sodium salt of dichlorosiocyanuric acid] | 21.90 | 19.40 | –
O=c1[nH]c(=O)n(Cl)c(=O)n1Cl [DCIA, dichloroisocyanuric acid] | 22.10 | 22.30 | –
CC(=O)OI(OC(C)=O)c1ccccc1 [PIDA, phenyl iodonium di-acetate] | 22.60 | 21.80 | –
O=S(=O)(c1ccccc1)N(Cl)Cl [DCBS, N,N-dichlorobenzene sulphonamide] | 21.20 | 18.80 | –
O=C1CCC(=O)N1Br [N-bromosuccinimide] | – | – | effect on the activity of the enzyme [6]: potent inhibitor

The next lines start with results.

Flow Rate (b) With additive 10 [1] [min] | Flow Rate (b) With additive 60 [1] [min] | Compound | also measured
23.50 | 22.90 | Cln1cncn1 [CT, 1-chloro-1,2,4-triazole] | –
22.80 | 22.50 | CC12N(Cl)C(=O)N(Cl)C1(C)N(Cl)C(=O)N2Cl (centres unmarked) [TCMG, tetrachloro-dimethyl glycoluril] | –
23.10 | 22.90 | CC1(C)C(=O)N(Cl)C(=O)N1Cl [DCMH, N,N¹-dichlorodimethyl hydantoin] | % of activity retained (d) [2]: 45%; % of activity retained (d) [3]: 14%; % of activity retained (h) (protease from S. griseus; DCMH 0.9 mM): 88%; % of activity retained (h) (protease from S. griseus; DCMH 9.0 mM): 9%; activity at 900 µM ([4]; DCMH 0.9 mM): 66%; activity at 9000 µM ([4]; DCMH 9.0 mM): 29%; breakdown of starch to sugar [5]: no breakdown of starch to sugar could be deteced
23.60 | 23.00 | O=C1N(Cl)C2C(N1Cl)N(Cl)C(=O)N2Cl (centres unmarked) [TCG, tetrachloroglycoluril] | –
